From patent publication US5856535A, “Aminosterol ester compounds” (priority 1996, dated 1999)
≈ marks a conversion by molar mass, not a printed value. Entries after “also recorded” stand apart in the source; their conditions may differ.

Tests used:
[1] = system: Xenopus laevis Stages 59-60 tadpoles; assay: tadpole assay; assay type: in vivo; conditions: for vascular effect in tadpole (in words): about 60 minutes, 10 μg/ml where stated
[2] = system: bacteria, fungi and protozoa; conditions: cited from earlier work
[3] = system: human microvascular cells; assay: endothelial cell cord formation assay (human microvascular cells, VEGF and bFGF, collagen matrix); assay type: cell-based
Text: Endothelial cells have the capacity in vitro to form tubular aggregates resembling capillaries in various early stages of formation. This conversion occurs under relatively specific conditions, in which essential growth factors along with an effective substratum are provided. It has been shown that both the interaction of growth factors with the endothelial cell and its attachment to a substratum activate the NHE. The activation of this exchanger is believed to be required for subsequent morphologic transformation of the endothelial cell into a multicellular tubular structure.
To assess the effect of compounds on the cord-like structures formed by human microvascular cells when plated in the presence of VEGF (Vascular Endothelial Growth Factor) and basic fibroblast growth factor on a collagen matrix, a standard cord formation assay was performed using the method described by Goto, et al., "Synergistic Effects of Vascular Endothelial Growth Factor and Basic Fibroblast Growth Factor on the Proliferation and Cord Formation of Bovine Capillary Endothelial Cells Within Collagen Gels," Laboratory Investigation, Vol. 69, No. 5, 1993, pp. 508-517. This article is entirely incorporated herein by reference.

[4] = system: chick embryo vitelline capillaries; assay: chick embryo vitelline capillary regression assay; assay type: in vivo; conditions: for effect on vitelline capillaries (in words): 3- to 5-day chick embryo
Description: Using the chick embryo vitelline capillaries assay, various aminosterol compounds were tested for their ability to induce capillary regression. Each compound was applied in 0.1 ml of 15% Ficol 400 and PBS onto the embryo, and vascular regression was assessed after 60 minutes. These tests were conducted by the chorioallantoic membrane anti-angiogenesis assay by applying the material to be assayed to 3 day old fertilized chick embryos in the manner described by Wilks et al., "Inhibition of Angiogenesis With Combination Angiostatic Steroids and Suramin," Radiation Biology, Vol. 60, Nos. 1/2, 1991, pp. 73-77, which article is entirely incorporated herein by reference.
The 3-day chick embryo consists of an embryonic disc from which numerous vessels emerge and return, forming a "figure 8"-shaped structure--the embryo in the center with vascular loops extending outward over both poles. […] Following a lag period of around 15 minutes, the constriction of continuity between capillary and secondary vessels, generally on the "venous" side, was observed. Continued pulsatile blood flow progressed, resulting in a "swelling" of the blind tube, followed by a pinching off of the remaining connection and formation of an enclosed vascular sac resembling a "blood island." This process progressed until only the largest vessels remained intact.

[5] = system: splenocytes; assay: mitogen proliferation assay (splenocytes of treated mice, Con A); assay type: in vivo; conditions: 10 mg/kg iv
Description: For the attached Tables, the mitogen proliferation assay was performed by treating mice (male or female) with various amounts of the aminosterol test compounds. Some time later (typically between 2 hours and 14 days), the mice are sacrificed and their spleens removed. Splenocytes are harvested and cultured in the presence of between 1-10 μg/ml of Con A (Sigma) for 48 hours. See James Morgan, "Monoclonal Antibody Production," Modern Methods in Pharmacology, pp. 29-67, eds., Spector and Back, 1988. This excerpt is entirely incorporated herein by reference. Cell proliferation is monitored either by direct cell counting or by measurement of the incorporation of radioactive thymidine.

[6] = system: melanoma cells; assay: MTT assay for cell number; assay type: cell-based; conditions: Tables III-V; read-out: MTT assay IC50
Description: In Table V, several aminosterol esters show efficacy in killing melanoma cells in the MTT assay.
The MTT assay for cell number is performed as follows. Cells are counted on a hemocytometer and diluted to a concentration of approx. 10,000 cells/well (55,000 cells/ml×0.18 ml). Cells are then plated in a 96 well microtiter plate and allowed to attach overnight. The next day, compounds are serially diluted from 1000 to 15.6 μg/ml and run in duplicate. 20 μl of each dilution are transferred to the pre-seeded microtiter plates. The final concentrations are 100 to 1.56 μg/ml. The plates are then incubated for 48 hours at 37° C. in 5% CO2. After 48 hours, MTT solution is added. The plate is re-incubated for 4 hours. Readings are done by removing all but 30 μl of media and MTT solution and dissolving the formazan crystals with DMSO. The formazan is dissolved by mixing on a rotating plate at low speed for about 30 minutes. Absorbance of converted dye is measured at a wavelength of 560 nm with background subtraction at 630 nm. The percent survival is determined by a comparison between the mean absorbance of the duplicate test lanes and the growth control.

[7] = inhibition of MSI-1436 binding; conditions: 3H-MSI-1436 at 20 μg/mL
[8] = system: HIV; assay: inhibition of HIV replication in vitro (HIV Inhib.); assay type: cell-based
[9] = PBMC toxicity; conditions: human

SMILES	unaffected functions in tadpole (in words) ([1]; 10 μg/ml)	vascular effect in tadpole (in words) [1]	antibiotic activity (in words) [2]	minimal effective concentration ([3]; Homo sapiens, Endothelial cell, text to the table, read-out: concentration at which cord formation is inhibited)	effect on cell viability or proliferation (in words) ([3]; at these concentrations)	effect on vitelline capillaries (in words) [4]	effect on vitelline capillaries (in words) ([4]; listed as squalamine)	hemorrhage, hemolysis and heartbeat of embryo (in words) ([4]; 3-day chick embryo)	Rel. potency to MSI-1436, Mitogen Proliferation Assay [5]	IC50 [6]	% Inhib. of MSI-1436 Binding @ 100 μg/mL [7]	% Inhib of HIV ([8]; 140 nM, 0.14 µM)	inhibition at 0.14 µM ([8]; Human immunodeficiency virus 1, 140 nM, read-out: % Inhib of HIV)	cytotoxicity at 14 µM [9]
CC(C)[C@@H](CC[C@@H](C)[C@H]1CC[C@H]2[C@@H]3[C@H](O)C[C@H]4C[C@@H](NCCCNCCCCN)CC[C@]4(C)[C@H]3CC[C@]12C)OS(=O)(=O)O [Squalamine, squalamine, reference compound]	continued heartbeat; also recorded: unaltered blood flow through the fine capillaries of the hands and feet	blood flow through the capillaries of the tail shut down; also recorded: enhanced regression of the most distal aspects of the tail; also recorded: common vascular occlusive effect	broad-spectrum antibiotic, killing bacteria, fungi and protozoa	~0.1 µg/mL	does not appear to profoundly affect cell viability or proliferation	disrupt vitelline capillaries in 3- to 5-day chick embryos	dramatic and rapid effect on capillary vessel integrity; also recorded: especially active	embryonic heart continued to beat vigorously; also recorded: No hemorrhage was seen; also recorded: absence of hemolysis						
CC(C)[C@@H](CC[C@@H](C)[C@H]1CC[C@H]2[C@@H]3[C@H](O)C[C@H]4C[C@@H](NCCCNCCCCNCCCN)CC[C@]4(C)[C@H]3CC[C@]12C)OS(=O)(=O)O [Compound 1436, reference compound]		common vascular occlusive effect							1	7.8 µg/mL (≈ 11.4 µM)	82%	78%	76%	0%
